Data reported in ChEMBL document CHEMBL1139134, “Synthesis and cytotoxic activity of 17-carboxylic acid modified 23-hydroxy betulinic acid ester derivatives” (Bioorg Med Chem Lett, 2007).

How the values were obtained:
B16 [1] = experiment: Cytotoxicity against mouse B16 cells by MTT assay; assay type: functional, cell-based
A549 = experiment: Cytotoxicity against human A549 cells by MTT assay; assay type: functional, cell-based
Bel-7402 = experiment: Cytotoxicity against human BEL-7402 cells by MTT assay; assay type: functional, cell-based
C6 = experiment: Cytotoxicity against […] by MTT assay
[2] = Cytotoxicity against human SF763 cells by MTT assay; assay type: functional, cell-based
H22 [3] = experiment: Antitumor activity in H22 cells xenografted ICR mouse assessed as tumor growth inhibition at 30 mg/kg, iv after 4 days; conditions: 96 h, read-out: Inhibition
B16 [4] = experiment: Antitumor activity in B16 cells xenografted ICR mouse assessed as tumor weight at 25 mg/kg, iv after 11 days; assay type: functional
B16 [5] = experiment: Antitumor activity in B16 cells xenografted ICR mouse assessed as tumor growth inhibition at 25 mg/kg, iv after 11 days; assay type: functional; conditions: B16, 264 h
H22 [6] = experiment: Antitumor activity in H22 cells xenografted ICR mouse assessed as tumor weight at 20 mg/kg, ip after 4 days; assay type: functional; conditions: route intraperitoneal
H22 [7] = experiment: Antitumor activity in H22 cells xenografted ICR mouse assessed as tumor growth inhibition at 20 mg/kg, ip after 4 days; assay type: functional; conditions: 96 h, route intraperitoneal
B16 [8] = experiment: Antitumor activity in B16 cells xenografted ICR mouse assessed as tumor weight at 20 mg/kg, ip after 11 days; assay type: functional; conditions: route intraperitoneal
B16 [9] = experiment: Antitumor activity in B16 cells xenografted ICR mouse assessed as tumor growth inhibition at 20 mg/kg, ip after 11 days; assay type: functional; conditions: 264 h, route intraperitoneal

## C=C(C)[C@@H]1CC[C@]2(C(=O)OCC#CC)CC[C@]3(C)[C@H](CC[C@@H]4[C@@]5(C)CC[C@H](O)[C@@](C)(CO)[C@@H]5CC[C@]43C)[C@@H]12
B16 [1]
  IC50: 63.1 µM
A549
  IC50: 81.1 µM
Bel-7402
  IC50: 53 µM
C6
  IC50: 75.9 µM
[2]
  IC50: 64.3 µM

## C=C(C)[C@@H]1CC[C@]2(C(=O)O)CC[C@]3(C)[C@H](CC[C@@H]4[C@@]5(C)CC[C@H](O)C(C)(C)[C@@H]5CC[C@]43C)[C@@H]12 [BETULINIC ACID]
B16 [1]
  IC50: 53.5 µM
A549
  IC50: 97.5 µM
Bel-7402
  IC50: 43.4 µM
C6
  IC50: 90.7 µM
[2]
  IC50: 92.1 µM

## O=P1(N(CCCl)CCCl)NCCCO1 (configuration not stated) [CYCLOPHOSPHAMIDE ANHYDROUS]
H22 [3]
  inhibition in vivo at 30 mg/kg: 56.3%

## O=c1[nH]cc(F)c(=O)[nH]1 [FLUOROURACIL]
B16 [4]
  Activity: 0.56 g
B16 [5]
  inhibition in vivo at 25 mg/kg: 72.4%

## C=C(C)[C@@H]1CC[C@]2(C(=O)O)CC[C@]3(C)[C@H](CC[C@@H]4[C@@]5(C)CC[C@H](O)[C@@](C)(CO)[C@@H]5CC[C@]43C)[C@@H]12
B16 [1]
  IC50: 83 µM
H22 [6]
  Activity: 1.42 g
H22 [7]
  inhibition in vivo at 20 mg/kg: 10.1%
B16 [8]
  Activity: 1.76 g
B16 [9]
  inhibition in vivo at 20 mg/kg: 13.3%
A549
  IC50: 87.6 µM
Bel-7402
  IC50: 97.3 µM
C6
  IC50: 99.5 µM
[2]
  IC50: 105 µM
